Results from ChEMBL document CHEMBL3217510, “Rhodanine carboxylic acids as novel inhibitors of histone acetyltransferases” (Medchemcomm, 2012).
Blank lines part the entries; values can stand above or below the compound they belong to.

Assays:
[1] = target: T1, Histone acetyltransferase KAT2B (Homo sapiens, UniProt Q92831); assay: Inhibition of human recombinant N-terminal His-tagged PCAF histone acetyltransferase catalytic domain expressed in Escherichia coli BL21 D3 using biotinylated histone H3 as substrate at 50 uM after 10 mins by TR-FRET analysis relative to control
Target sequence in this assay (Q92831 whole entry, looked up, the tested form may be a part): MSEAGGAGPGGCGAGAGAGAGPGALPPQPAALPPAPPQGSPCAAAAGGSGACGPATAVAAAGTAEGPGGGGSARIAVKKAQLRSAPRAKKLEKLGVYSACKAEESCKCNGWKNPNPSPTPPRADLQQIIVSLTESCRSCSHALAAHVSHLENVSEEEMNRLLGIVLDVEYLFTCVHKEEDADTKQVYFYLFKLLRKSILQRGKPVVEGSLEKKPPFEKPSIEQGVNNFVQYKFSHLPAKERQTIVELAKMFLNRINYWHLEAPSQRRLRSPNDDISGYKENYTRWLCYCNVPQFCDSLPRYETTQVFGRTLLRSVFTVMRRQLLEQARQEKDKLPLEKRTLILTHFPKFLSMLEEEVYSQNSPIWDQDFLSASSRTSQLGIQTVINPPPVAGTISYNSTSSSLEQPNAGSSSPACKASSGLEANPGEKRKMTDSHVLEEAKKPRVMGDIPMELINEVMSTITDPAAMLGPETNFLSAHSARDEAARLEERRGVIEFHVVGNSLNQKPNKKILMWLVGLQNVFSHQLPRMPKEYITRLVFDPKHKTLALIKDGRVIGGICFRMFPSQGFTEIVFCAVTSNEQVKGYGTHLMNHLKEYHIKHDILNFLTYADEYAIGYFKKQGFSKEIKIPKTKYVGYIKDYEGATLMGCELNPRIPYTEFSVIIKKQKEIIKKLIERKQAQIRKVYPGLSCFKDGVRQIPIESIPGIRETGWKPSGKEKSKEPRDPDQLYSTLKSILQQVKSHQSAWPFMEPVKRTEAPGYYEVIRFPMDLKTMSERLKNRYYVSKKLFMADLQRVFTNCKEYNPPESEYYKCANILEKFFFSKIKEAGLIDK

[2] = target: T1, Histone acetyltransferase KAT2B; assay: Inhibition of human recombinant N-terminal His-tagged PCAF histone acetyltransferase catalytic domain expressed in Escherichia coli BL21 D3 using biotinylated histone H3 as substrate after 10 mins by TR-FRET analysis relative to control
Target sequence in this assay (Q92831 whole entry, the tested form may be a part): as the sequence (Q92831 whole entry, looked up, the tested form may be a part) above

[3] = target: T2, Histone acetyltransferase KAT2A (Homo sapiens, UniProt Q92830); assay: Inhibition of KAT2A (362 to 837) (unknown origin) using biotinylated histone H3 as substrate after 10 mins by TR-FRET analysis relative to control
Target sequence in this assay (Q92830 whole entry): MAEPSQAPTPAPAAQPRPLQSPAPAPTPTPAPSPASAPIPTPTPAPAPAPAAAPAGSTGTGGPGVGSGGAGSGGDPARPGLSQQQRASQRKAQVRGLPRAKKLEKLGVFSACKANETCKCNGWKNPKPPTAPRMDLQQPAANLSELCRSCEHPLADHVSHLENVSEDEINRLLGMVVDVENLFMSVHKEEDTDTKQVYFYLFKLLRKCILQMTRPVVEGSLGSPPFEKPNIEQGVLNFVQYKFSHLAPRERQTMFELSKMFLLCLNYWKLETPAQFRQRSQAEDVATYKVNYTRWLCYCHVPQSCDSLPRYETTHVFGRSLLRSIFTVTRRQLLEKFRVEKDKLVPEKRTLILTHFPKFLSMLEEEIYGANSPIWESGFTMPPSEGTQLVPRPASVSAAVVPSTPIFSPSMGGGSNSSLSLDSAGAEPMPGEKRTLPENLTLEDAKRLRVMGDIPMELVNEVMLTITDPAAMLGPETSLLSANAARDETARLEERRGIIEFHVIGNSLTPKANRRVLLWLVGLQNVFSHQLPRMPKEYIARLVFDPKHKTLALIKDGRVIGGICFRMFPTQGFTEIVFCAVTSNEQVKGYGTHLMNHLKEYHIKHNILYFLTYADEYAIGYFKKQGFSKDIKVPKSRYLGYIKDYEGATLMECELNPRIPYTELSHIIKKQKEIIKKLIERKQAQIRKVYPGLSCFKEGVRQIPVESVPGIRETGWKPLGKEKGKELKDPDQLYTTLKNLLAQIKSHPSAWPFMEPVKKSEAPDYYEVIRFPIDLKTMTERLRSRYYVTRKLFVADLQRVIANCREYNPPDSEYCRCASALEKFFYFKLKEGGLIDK

CREB-binding protein [4] = target: T3, CREB-binding protein (Homo sapiens, UniProt Q92793); assay: Inhibition of KAT3A (1319 to 1710) (unknown origin) using biotinylated histone H3 as substrate after 10 mins by TR-FRET analysis relative to control
Target sequence in this assay (Q92793 whole entry): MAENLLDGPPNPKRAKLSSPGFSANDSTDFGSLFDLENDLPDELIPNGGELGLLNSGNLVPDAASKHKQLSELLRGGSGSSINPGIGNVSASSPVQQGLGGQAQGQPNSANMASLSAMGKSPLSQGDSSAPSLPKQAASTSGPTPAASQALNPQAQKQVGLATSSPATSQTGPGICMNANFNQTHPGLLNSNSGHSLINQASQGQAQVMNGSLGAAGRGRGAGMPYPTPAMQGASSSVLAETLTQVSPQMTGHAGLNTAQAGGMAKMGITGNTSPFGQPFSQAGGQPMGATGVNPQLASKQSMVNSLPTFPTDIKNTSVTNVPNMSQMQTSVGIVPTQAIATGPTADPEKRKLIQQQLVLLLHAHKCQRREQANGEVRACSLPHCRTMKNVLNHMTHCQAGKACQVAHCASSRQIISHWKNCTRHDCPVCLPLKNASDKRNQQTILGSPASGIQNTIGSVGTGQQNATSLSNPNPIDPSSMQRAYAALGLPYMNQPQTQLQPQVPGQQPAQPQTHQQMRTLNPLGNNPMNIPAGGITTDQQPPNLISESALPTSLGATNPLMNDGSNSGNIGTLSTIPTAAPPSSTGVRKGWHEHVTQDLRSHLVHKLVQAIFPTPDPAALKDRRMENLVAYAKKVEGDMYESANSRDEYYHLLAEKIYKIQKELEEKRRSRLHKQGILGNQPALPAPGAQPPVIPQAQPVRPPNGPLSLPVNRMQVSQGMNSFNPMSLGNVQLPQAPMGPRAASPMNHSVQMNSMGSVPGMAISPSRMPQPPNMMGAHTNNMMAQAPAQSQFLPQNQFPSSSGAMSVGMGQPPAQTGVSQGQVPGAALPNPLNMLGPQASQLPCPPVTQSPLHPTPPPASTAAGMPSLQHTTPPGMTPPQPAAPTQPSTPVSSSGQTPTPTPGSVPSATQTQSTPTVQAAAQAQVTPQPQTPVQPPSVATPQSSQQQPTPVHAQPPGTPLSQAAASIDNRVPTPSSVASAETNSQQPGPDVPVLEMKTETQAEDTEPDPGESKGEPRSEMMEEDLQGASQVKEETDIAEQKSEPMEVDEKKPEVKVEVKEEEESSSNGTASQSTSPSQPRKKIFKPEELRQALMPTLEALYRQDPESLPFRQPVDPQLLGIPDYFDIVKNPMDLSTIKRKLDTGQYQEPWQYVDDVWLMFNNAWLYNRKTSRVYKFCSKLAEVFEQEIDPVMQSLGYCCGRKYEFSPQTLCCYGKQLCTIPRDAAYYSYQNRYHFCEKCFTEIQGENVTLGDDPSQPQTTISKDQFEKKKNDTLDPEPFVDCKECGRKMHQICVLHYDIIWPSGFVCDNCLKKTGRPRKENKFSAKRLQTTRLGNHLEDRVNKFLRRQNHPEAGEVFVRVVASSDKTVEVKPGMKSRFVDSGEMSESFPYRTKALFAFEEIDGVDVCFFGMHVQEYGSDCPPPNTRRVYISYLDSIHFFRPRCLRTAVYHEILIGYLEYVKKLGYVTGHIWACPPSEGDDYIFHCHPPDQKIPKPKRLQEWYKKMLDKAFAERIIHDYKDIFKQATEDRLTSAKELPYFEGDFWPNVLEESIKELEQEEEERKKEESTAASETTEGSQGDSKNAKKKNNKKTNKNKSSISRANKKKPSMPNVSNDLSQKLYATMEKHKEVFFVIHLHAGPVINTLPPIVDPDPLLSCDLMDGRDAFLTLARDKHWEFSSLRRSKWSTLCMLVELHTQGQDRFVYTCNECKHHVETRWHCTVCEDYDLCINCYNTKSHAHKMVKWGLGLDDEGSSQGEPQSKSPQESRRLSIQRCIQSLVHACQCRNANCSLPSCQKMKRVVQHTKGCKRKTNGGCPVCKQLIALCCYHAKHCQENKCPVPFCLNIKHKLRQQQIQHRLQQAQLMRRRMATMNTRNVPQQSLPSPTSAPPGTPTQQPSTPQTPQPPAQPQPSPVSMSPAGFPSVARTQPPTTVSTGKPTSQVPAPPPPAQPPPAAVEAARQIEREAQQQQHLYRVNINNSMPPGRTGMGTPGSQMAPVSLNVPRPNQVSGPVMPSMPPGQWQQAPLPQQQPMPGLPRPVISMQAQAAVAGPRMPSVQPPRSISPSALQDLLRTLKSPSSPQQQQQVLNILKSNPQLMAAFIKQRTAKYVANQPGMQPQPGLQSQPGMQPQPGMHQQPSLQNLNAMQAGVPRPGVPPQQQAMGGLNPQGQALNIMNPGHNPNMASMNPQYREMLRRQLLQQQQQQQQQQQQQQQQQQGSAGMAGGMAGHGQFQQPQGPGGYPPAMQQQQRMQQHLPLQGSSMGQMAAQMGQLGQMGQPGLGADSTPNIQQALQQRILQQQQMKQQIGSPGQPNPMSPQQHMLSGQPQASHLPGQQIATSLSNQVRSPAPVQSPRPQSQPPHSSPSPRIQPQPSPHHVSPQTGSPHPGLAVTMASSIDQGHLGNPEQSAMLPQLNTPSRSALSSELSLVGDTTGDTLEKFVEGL

[5] = target: T4, Histone acetyltransferase p300 (Homo sapiens, UniProt Q09472); assay: Inhibition of KAT3B (965 to 1810) (unknown origin) using biotinylated histone H3 as substrate after 10 mins by TR-FRET analysis relative to control
[6] = target: T2, Histone acetyltransferase KAT2A; assay: Inhibition of KAT2A (362 to 837) (unknown origin) using biotinylated histone H3 as substrate at 50 uM after 10 mins by TR-FRET analysis relative to control
Target sequence in this assay (Q92830 2-837 limits assumed): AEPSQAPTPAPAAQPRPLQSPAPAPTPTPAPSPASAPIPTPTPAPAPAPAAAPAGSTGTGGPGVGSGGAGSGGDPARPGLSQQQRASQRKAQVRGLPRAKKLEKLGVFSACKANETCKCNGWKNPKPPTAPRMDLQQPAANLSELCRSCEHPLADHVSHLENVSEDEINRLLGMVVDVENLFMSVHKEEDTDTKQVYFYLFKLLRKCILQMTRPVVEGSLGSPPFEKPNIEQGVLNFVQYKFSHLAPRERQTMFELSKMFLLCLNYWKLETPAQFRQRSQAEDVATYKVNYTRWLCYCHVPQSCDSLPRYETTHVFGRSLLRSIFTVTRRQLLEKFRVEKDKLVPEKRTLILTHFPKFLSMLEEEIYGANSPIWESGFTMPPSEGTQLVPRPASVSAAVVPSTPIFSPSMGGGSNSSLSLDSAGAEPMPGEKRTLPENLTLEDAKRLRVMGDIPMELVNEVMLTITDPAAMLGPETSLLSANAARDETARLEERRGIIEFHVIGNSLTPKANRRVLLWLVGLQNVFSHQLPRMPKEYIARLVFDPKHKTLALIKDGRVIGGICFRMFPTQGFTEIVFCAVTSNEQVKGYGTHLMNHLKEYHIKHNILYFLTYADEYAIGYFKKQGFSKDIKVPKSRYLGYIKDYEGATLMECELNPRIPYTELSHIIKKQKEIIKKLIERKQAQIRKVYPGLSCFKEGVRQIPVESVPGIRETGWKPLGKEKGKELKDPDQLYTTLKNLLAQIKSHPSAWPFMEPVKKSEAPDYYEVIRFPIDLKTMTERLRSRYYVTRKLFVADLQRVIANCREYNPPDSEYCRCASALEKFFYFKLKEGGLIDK

[7] = target: T4, Histone acetyltransferase p300; assay: Inhibition of KAT3B (965 to 1810) (unknown origin) using biotinylated histone H3 as substrate at 50 uM after 10 mins by TR-FRET analysis relative to control
CREB-binding protein [8] = target: T3, CREB-binding protein; assay: Inhibition of KAT3A (1319 to 1710) (unknown origin) using biotinylated histone H3 as substrate at 50 uM after 10 mins by TR-FRET analysis relative to control
[9] = target: T4, Histone acetyltransferase p300; assay: Inhibition of KAT3B (965 to 1810) (unknown origin) using biotinylated histone H3 as substrate at 100 uM after 10 mins by TR-FRET analysis relative to control

SMILES: CN(C)c1ccc(/C=C2\SC(=S)N(CCCCCC(=O)O)C2=O)cc1
inhibition [1]: < 5%

SMILES: O=C(O)c1ccc(N2C(=O)/C(=C3/C(=O)N(Cc4ccccc4)c4ccccc43)SC2=S)cc1
inhibition [1]: 14%

SMILES: CC1=C/C(=N/Nc2ccnc3cc(Cl)ccc23)CC1
inhibition [1]: 12%

SMILES: O=c1c2cccnc2sn1Cc1ccc(Cl)cc1
IC50 [3]: 89.9 µM
IC50 (CREB-binding protein [4]): 1.95 µM

SMILES: COC(=O)CCCCCN1C(=O)/C(=C/c2ccc(C)cc2)SC1=S
inhibition [1]: 24%

SMILES: CCCCCCOc1ccc(/C=C2\SC(=S)N(CCCC(=O)O)C2=O)cc1
inhibition [1]: 8%

SMILES: COC(=O)CCCCCN1C(=O)/C(=C/c2cc(OC)ccc2OC)SC1=S
inhibition [1]: 21%

SMILES: COC(=O)CCN1C(=O)/C(=C/c2cc(OC)ccc2OC)SC1=S
inhibition [1]: 8%

SMILES: Cc1ccc(COc2cccc(/C=C3\SC(=S)N(CCCC(=O)O)C3=O)c2)cc1
inhibition [1]: 5%

SMILES: COc1ccc(/C=C2\SC(=S)N(CCCCCC(=O)O)C2=O)cc1Br
inhibition [1]: 8%

SMILES: O=C1Nc2ccccc2/C1=C1/SC(=S)N(CCS(=O)(=O)O)C1=O
inhibition [1]: < 5%

SMILES: CCOc1ccccc1/C=C1\SC(=S)N(CCCCCC(=O)OC)C1=O
inhibition [1]: 9%

Other lines, results leading:

inhibition [1]: 6%
SMILES: Cc1cccc(NC(=O)CN2C(=O)/C(=C3\SC(=S)N(CCS(=O)(=O)O)C3=O)c3ccccc32)c1

IC50 [2]: 28.8 µM
IC50 [3]: 54.7 µM
IC50 (CREB-binding protein [4]): 40.9 µM
IC50 [5]: 61.9 µM
SMILES: COc1ccc(CN2C(=O)/C(=C3\SC(=S)N(CCCCCC(=O)O)C3=O)c3ccccc32)cc1

inhibition [1]: 8%
SMILES: Cc1ccc(CN2C(=O)/C(=C3\SC(=S)N(CCCCC(=O)O)C3=O)c3ccccc32)cc1

inhibition [1]: < 5%
SMILES: O=C(O)CCCCCN1C(=O)/C(=C/c2ccc(-c3ccccc3)cc2)SC1=S

inhibition [1]: 8%
inhibition [6]: 6%
inhibition [7]: < 5%
inhibition (CREB-binding protein [8]): 25%
SMILES: COC(=O)CCCCCN1C(=O)/C(=C2/C(=O)N(Cc3ccc(C)cc3)c3ccccc32)SC1=S

IC50 [2]: 63.7 µM
IC50 [3]: 63.5 µM
IC50 (CREB-binding protein [4]): 35.9 µM
IC50 [5]: 95.3 µM
SMILES: Cc1ccc(CN2C(=O)/C(=C3\SC(=S)N(CCCCCCCC(=O)O)C3=O)c3ccccc32)cc1

IC50 [2]: 67.2 µM
IC50 [3]: 47 µM
IC50 (CREB-binding protein [4]): 41 µM
IC50 [5]: 81 µM
SMILES: Cc1ccc(CN2C(=O)/C(=C3\SC(=S)N(CCCCCC(=O)O)C3=O)c3ccccc32)cc1

IC50 [2]: 41.8 µM
IC50 [3]: 46.4 µM
IC50 (CREB-binding protein [4]): 38.5 µM
inhibition [9]: 23%
SMILES: Cc1ccc(CN2C(=O)/C(=C3\SC(=S)N(C[C@H]4CC[C@H](C(=O)O)CC4)C3=O)c3ccccc32)cc1

inhibition [1]: 5%
SMILES: CN1C(=O)/C(=C2\SC(=S)N(CCCCCC(=O)O)C2=O)c2ccccc21

inhibition [1]: 13%
SMILES: O=C(O)CCCCCN1C(=O)/C(=C2/C(=O)N(Cc3ccccc3)c3ccccc32)SC1=S

IC50 [2]: 97.7 µM
IC50 [3]: 210 µM
IC50 (CREB-binding protein [4]): 116 µM
IC50 [5]: 244 µM
SMILES: O=C(O)CCCCCN1C(=O)/C(=C2/C(=O)N(Cc3ccc(F)cc3)c3ccccc32)SC1=S

inhibition [1]: < 5%
SMILES: Cc1ccc(CN2C(=O)/C(=C3\SC(=S)N(CCS(=O)(=O)O)C3=O)c3ccccc32)cc1

IC50 [2]: 78.2 µM
IC50 [3]: 69.6 µM
IC50 (CREB-binding protein [4]): 28.4 µM
IC50 [5]: 152 µM
SMILES: O=C(O)CCCCCN1C(=O)/C(=C2/C(=O)N(Cc3ccc([N+](=O)[O-])cc3)c3ccccc32)SC1=S

inhibition [1]: 6%
SMILES: CCN1C(=O)/C(=C2\SC(=S)N(CCCCCC(=O)O)C2=O)c2ccccc21

inhibition [1]: 9%
SMILES: O=C(O)CCCCCN1C(=O)/C(=C2/C(=O)Nc3ccccc32)SC1=S
